Laboratory results: patent US8067447B2, “Modulators of glucocorticoid receptor, AP-1, and/or NF-κB activity and use thereof” (Bristol-Myers Squibb Company, priority 2006, dated 2011)
Read-outs that look alike come from different tables or passages of the source.

What was measured:
[1] = molecular target: T1, human glucocorticoid receptor (Homo sapiens, UniProt P04150); test: Glucocorticoid Receptor Binding Assay (I), fluorescence polarization competitor kit (Fluormone GS Red); conditions: purified human recombinant full-length GR 2 nM, 1 nM Fluormone GS Red, FP; read-out: GR (Ki, nM) (GR Binding Assay (I))
T1 construct: purified human recombinant full-length glucocorticoid receptor (2 nM); purchased Invitrogen Part #2893
T1 sequence (P04150 1-777): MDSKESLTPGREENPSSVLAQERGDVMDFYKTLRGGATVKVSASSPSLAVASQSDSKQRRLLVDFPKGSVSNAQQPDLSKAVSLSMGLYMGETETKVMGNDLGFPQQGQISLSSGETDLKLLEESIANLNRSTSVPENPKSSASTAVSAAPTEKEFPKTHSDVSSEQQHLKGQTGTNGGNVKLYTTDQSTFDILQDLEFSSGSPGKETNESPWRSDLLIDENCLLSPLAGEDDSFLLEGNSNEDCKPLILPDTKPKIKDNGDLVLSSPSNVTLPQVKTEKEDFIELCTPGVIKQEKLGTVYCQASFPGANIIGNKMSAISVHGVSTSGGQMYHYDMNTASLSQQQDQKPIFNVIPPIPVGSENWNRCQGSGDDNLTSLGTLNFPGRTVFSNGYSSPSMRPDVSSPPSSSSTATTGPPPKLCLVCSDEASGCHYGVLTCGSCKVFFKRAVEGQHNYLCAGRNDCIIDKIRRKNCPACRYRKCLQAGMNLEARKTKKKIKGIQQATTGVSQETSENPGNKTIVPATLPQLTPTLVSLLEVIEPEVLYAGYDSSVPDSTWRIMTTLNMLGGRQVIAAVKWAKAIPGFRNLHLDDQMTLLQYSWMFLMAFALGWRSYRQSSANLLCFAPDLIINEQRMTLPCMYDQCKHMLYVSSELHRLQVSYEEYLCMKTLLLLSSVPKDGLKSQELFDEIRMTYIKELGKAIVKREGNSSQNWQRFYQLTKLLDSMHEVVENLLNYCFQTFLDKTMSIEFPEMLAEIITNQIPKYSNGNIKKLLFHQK
Method: Briefly, purified human recombinant full-length glucocorticoid receptor (2 nM) was mixed with fluorescently labeled glucocorticoid (1 nM Fluormone GS Red) in the presence or absence of test compound. After two hour incubation at room temperature in the dark, the fluorescence polarization (FP) of the samples was measured. […] Test compounds were analyzed in the concentration range from 8.5E-05 μM to 5 μM.

[2] = test system: AP-1 induced transcriptional activity; test: Cellular Transrepressional Assay (AP-1 luciferase reporter in A549 cells, PMA-activated); format: cell-based; conditions: A549 cells with 7x AP-1 luciferase reporter, 10 ng/ml PMA, read-out: AP-1 (EC50, nM) (Cellular Transrepression Assay)
Method: To measure the ability of test molecules to inhibit AP-1 induced transcriptional activity an A549 cell was utilized which was stably transfected with a plasmid containing 7× AP-1 DNA binding sites (pAP-1-Luc plasmid, Stratagene Co. La Jolla, Calif.) followed by the gene for luciferase. Cells were activated with 10 ng/ml of […] (PMA) plus or minus test molecules for 7 hours. After 7 hours a luciferase reagent was added to measure luciferase enzymatic activity in the cell. After a 10 minute incubation of luciferase reagent with cells, luminescence was measured in a TopCount luminescence counter. Repression of AP-1 activity was calculated as the percentage decrease in the signal induced by PMA alone. Test molecules were analyzed in the concentration range from 0.1 nM to 40 μM. EC50s were determined by using standard curve fitting methods such as Excel fit (Microsoft Co.).

SMILES | Ki [1] | EC50 ([2]; Homo sapiens, A549, 7 h) | EC50 ([2]; 7 hours)
CC(C)(C(=O)Nc1nccs1)C(c1ccccc1)c1ccc2[nH]cc(C=O)c2c1 (stereo not shown) [Example 109, 3-(3-Formyl-1H-indol-5-yl)-2,2-dimethyl-3-phenyl-N-(thiazol-2-yl)propanamide] | 59 nM | > 10000 nM | 
CC(C)(C(=O)Nc1nncs1)C(c1ccccc1)c1ccc2[nH]c(-c3nccs3)cc2c1 (stereo not shown) [Example 118, 2,2-dimethyl-3-phenyl-N-(1,3,4-thiadiazol-2-yl)-3-(2-(thiazol-2-yl)-1H-indol-5-yl)propanamide] | 95 nM | 2930 nM | 
CC(C)(C(=O)Nc1nncs1)C(c1ccccc1)c1ccc2c(cnn2-c2ccc(F)cc2C(F)(F)F)c1 (stereo not shown) [Example 92, 3-(1-(4-fluoro-2-(trifluoromethyl)phenyl)-1H-indazol-5-yl)-2,2-dimethyl-3-phenyl-N-(1,3,4-thiadiazol-2-yl)proponamide] | 110 nM | > 10000 nM | 
CC(C)(C(=O)Nc1sccc1C#N)C(c1ccccc1)c1ccc2c(cnn2-c2ccc(F)cc2)c1 (stereo not shown) [Example 19, N-(3-cyanothiophen-2-yl)-3-(1-(4-fluorophenyl)-1H-indazol-5-yl)-2,2-dimethyl-3-phenylpropanamide] | 47 nM | > 10000 nM | 
CC(C)(C(=O)Nc1nccs1)C(c1ccc2c(cnn2-c2ccc(F)cc2)c1)C1CCCC1 (stereo not shown) [Example 35, 3-Cyclopentyl-3-(1-(4-fluorophenyl)-1H-indazol-5-yl)-2,2-dimethyl-N-(thiazol-2-yl)propanamide] | 21 nM | 82 nM | 
CC(C)(C(=O)Nc1nccs1)C(c1ccccc1)c1ccc2c(cnn2CCO)c1 (stereo not shown) [Example 57, 3-(1-(2-hydrox-ethyl)-1H-indazol-5-yl)-2,2-dimethyl-3-phenyl-N-(thiazol-2-yl)propanamide] | 20 nM | 205 nM | 
CC(C)(Cc1ccc2c(cnn2-c2ccc(F)cc2)c1)C(=O)Nc1nncs1 [Example 32, 3-(1-(4-Fluorophenyl)-1H-indazol-5-yl)-2,2-dimethyl-N-(1,3,4-thiadiazol-2-yl)propanamide] | 84 nM | 4320 nM | 
CC(C)(C(=O)Nc1nncs1)C(c1ccccc1)c1ccc2[nH]c(-c3ccncc3)cc2c1 (stereo not shown) [Example 116, 2,2-dimethyl-3-phenyl-3-(2-(pyridin-4-yl)-1H-indol-5-yl)-N-(1,3,4-thiadiazol-2-yl)propanamide] | 43 nM | 3260 nM | 
CC(C)(C(=O)Nc1nc2ccccc2s1)C(c1ccccc1)c1ccc2c(cnn2-c2ccc(F)cc2)c1 (stereo not shown) [Example 23, N-(benzyl[d]thiazol-2-yl)-3-(1-(4-fluorophenyl)-1H-indazol-5-yl)-2,2-dimethyl-3-phenylpropanamide] | 60 nM | > 10000 nM | 
CC(C)(C(=O)Nc1nccs1)C(c1ccccc1)c1ccc2[nH]c(-c3ccccn3)cc2c1 (single isomer, unassigned) [111-enant B, 2,2-Dimethyl-3-phenyl-3-(2-(pyridin-2-yl)-1H-indol-5-yl)-N-(thiazol-2-yl)propanamide] | 25 nM |  | 777 nM
CCOC(=O)c1csc(NC(=O)C(C)(C)C(c2ccccc2)c2ccc3c(cnn3-c3ccc(F)cc3)c2)n1 (stereo not shown) [Example 27, ethyl 2-(3-(1-(4-fluorophenyl)-1H-indazol-5-yl)-2,2-dimethyl-3-phenylpropanamido)thiazol-4-carboxylate] | 23 nM | 1310 nM | 
CCOC(=O)c1nnc(NC(=O)C(C)(C)C(c2ccccc2)c2ccc3c(cnn3-c3ccc(F)cc3)c2)s1 (stereo not shown) [Example 10, ethyl 5-(3-(1-(4-fluorophenyl)-1H-indazol-5-yl)-2,2-dimethyl-3-phenylprop-anamido)-1,3,4-thiadiazole-2-carboxylate] | 227 nM | 3520 nM | 

Further molecules by falling Ki [1], results first:

Ki [1] | EC50 ([2]; Homo sapiens, A549, 7 h) | EC50 ([2]; 7 hours) | SMILES
20 nM | 491 nM |  | CC(C)(C(=O)Nc1nncs1)C(c1ccccc1)c1ccc2c(cnn2-c2ccncc2)c1 (stereo not shown) [Example 82, 2,2-dimethyl-3-phenyl-3-(1-(pyridin-4-yl)-1H-indazol-5-yl)-N-(1,3,4-thiadiazol-2-yl)propanamide]
19 nM | 1020 nM |  | CC(C)Cn1ncc2cc(C(c3ccccc3)C(C)(C)C(=O)Nc3nncs3)ccc21 (stereo not shown) [Example 70, 3-(1-isobutyl-1H-indazol-5-yl)-2,2-dimethyl-3-phenyl-N-(1,3,4-thiadiazol-2-yl)propanamide]
19 nM | > 10000 nM |  | CC(C)(C(=O)Nc1nnc(C(F)(F)F)s1)C(c1ccccc1)c1ccc2c(cnn2-c2ccc(F)cc2)c1 (stereo not shown) [Example 25, 3-(1-(4-fluorophenyl)-1H-indazol-5-yl)-2,2-dimethyl-3-phenyl-N-(5-(trifluoromethyl)-1,3,4-thiadiazol-2-yl)propanamide]
17 nM | 1020 nM |  | CC(C)(C(=O)Nc1nncs1)C(c1ccccc1)c1ccc2c(cnn2CCCO)c1 (stereo not shown) [Example 75, 3-(1-(3-hydroxypropyl)-1H-indazol-5-yl)-2,2-dimethyl-3-phenyl-N-(1,3,4-thiadiazol-2-yl)propanamide]
16 nM | 404 nM |  | CC(C)(C(=O)Nc1ncc(Cl)s1)C(c1ccccc1)c1ccc2c(cnn2-c2ccc(F)cc2)c1 (stereo not shown) [Example 26, N-(5-chlorothiazol-2-yl)-3-(1-(4-fluorophenyl)-1H-indazol-5-yl)-2,2-dimethyl-3-phenylpropanamide]
13 nM | 2410 nM |  | CC(C)(C(=O)Nc1nccs1)C(c1ccccc1)c1ccc2c(-c3ccccc3)n[nH]c2c1 (stereo not shown) [Example 112, 2,2-Dimethyl-3-phenyl-3-(3-phenyl-1H-indazol-6-yl)-N-(thiazol-2-yl)propanamide]
11 nM | 17 nM |  | CC(C)(C(=O)Nc1nc[nH]n1)C(c1ccccc1)c1ccc2c(cnn2-c2ccc(F)cc2)c1 (stereo not shown) [Example 13, 3-(1-(4-fluorophenyl)-1H-indazol-5-yl)-2,2-dimethyl-3-phenyl-N-(1H-1,2,4-triazol-3-yl)propanamide]
11 nM | 73 nM |  | CC(C)(C(=O)Nc1ccsc1)C(c1ccccc1)c1ccc2c(cnn2-c2ccc(F)cc2)c1 (stereo not shown) [Example 11, 3-(1-(4-fluorophenyl)-1H-indazol-5-yl)-2,2-dimethyl-3-phenyl-N-(thiophen-3-yl)propanamide]
11 nM | 1290 nM |  | CC(C)(C(=O)Nc1nccs1)C(c1ccccc1)c1ccc2c(cnn2-c2ccncc2)c1 (stereo not shown) [Example 81, 2,2-dimethyl-3-phenyl-3-(1-(pyridin-4-yl)-1H-indazol-5-yl)-N-(thiazol-2-yl)propanamide]
7.2 nM | 306 nM |  | CC(C)(C(=O)Nc1nncs1)C(c1ccccc1)c1ccc2c(cnn2-c2ccc(O)cc2)c1 (stereo not shown) [Example 84, 3-(1-(4-hydroxyphenyl)-1H-indazol-5-yl)-2,2-dimethyl-3-phenyl-N-(1,3,4-thiadiazol-2-yl)propanamide]
7 nM | 1330 nM |  | CC(C)(C(=O)NS(C)(=O)=O)C(c1ccccc1)c1ccc2c(cnn2-c2ccc(F)cc2)c1 (stereo not shown) [Example 5, 3-(1-(4-fluorophenyl)-1H-indazol-5-yl)-2,2-dimethyl-N-(methylsulfonyl)-3-phenylpropanamide]
6.9 nM | 199 nM |  | CC(C)(C(=O)NC1CCCC1)C(c1ccccc1)c1ccc2c(cnn2-c2ccc(F)cc2)c1 (stereo not shown) [Example 3, N-cyclopentyl-3-(1-(4-fluorophenyl)-1H-indazol-5-yl)-2,2-dimethyl-3-phenylpropanamide]
6.6 nM | 1200 nM |  | CC(C)(C(=O)Nc1nccs1)C(c1ccccc1)c1ccc2[nH]cc(C#N)c2c1 (stereo not shown) [Example 108, 3-(3-Cyano-1H-indol-5-yl)-2,2-dimethyl-3-phenyl-N-(thiazol-2-yl)propanamide]
3.6 nM | 3560 nM |  | CC(C)(C(=O)Nc1nccs1)C(c1ccccc1)c1cnc2c(cnn2-c2ccccc2)c1 (stereo not shown) [Example 162, 2,2-dimethyl-3-phenyl-3-(1-phenyl-1H-pyrazolo[3,4-b]pyridin-5-yl)-N-(thiazol-2-yl)propanamide]
